Reference: US8629110B2, “Kv1.3 channel blocking substances for the treatment of diseases associated with intimal hyperplasia” (priority 2008, dated 2014)
Where two headings read alike, the source gives them in different places.

Tests used:
[1] = biological target: T1, Kv1.3 channel (Homo sapiens, UniProt P22001); details: read-out: Affinity (Kd), cited from earlier work
[2] = Swine stent model: pharmacokinetics (blood and arterial tissue levels); assay type: in vivo, pigs
Method: (§1) The total weight of the polymer with the drug is about 500 μg and the drug:polymer ratio is 30%. The stents are packed individually, coded with a bar code (to do a double blind experiment) and sterilized with ethylene oxide.
(§2) 36 stents (12 with the polymer alone, 12 with PAP and 12 with ShK) are implanted in 12 young pigs (25-35 kg) in the anterior descending or circumflex branches of the left coronary artery or in the right coronary artery (at a proportion of 3 stents per animal). The animals recover from the operation and are sent back to the animal house where they receive a normal diet supplemented with aspirin (325 mg/d). Blood samples of the animals are obtained at 6, 12, 24, 48 and 96 hours to determine the plasma levels of PAP and ShK. At 7 (n=4) or 28 days (n=8) the animals are euthanized after performing a coronary arteriography for the quantitative analysis. In one animal of each group (7 and 28 days), after euthanasia the coronary arteries are dissected, the stent is removed and the samples are frozen in liquid nitrogen in order to determine different markers by means of Western blot of the tissues and to determine the levels of PAP and ShK in the arterial wall. In the rest of the animals, immediately after euthanasia the hearts are collected and the coronary arteries are fixed by perfusion of formalin at 10% for 30 minutes.

[3] = biological target: T2, Kv1.3 channels (Mus musculus, UniProt P16390); assay: Whole-cell patch-clamp of Kv currents in contractile and cultured VSMCs of mouse femoral arteries; assay type: cell-based; details: 10 nM, pulse to +40 mV
T2 construct: endogenous in cells; host or cells: freshly dissociated and cultured VSMCs from femoral arteries of BPN mice
T2 sequence (P16390 whole entry): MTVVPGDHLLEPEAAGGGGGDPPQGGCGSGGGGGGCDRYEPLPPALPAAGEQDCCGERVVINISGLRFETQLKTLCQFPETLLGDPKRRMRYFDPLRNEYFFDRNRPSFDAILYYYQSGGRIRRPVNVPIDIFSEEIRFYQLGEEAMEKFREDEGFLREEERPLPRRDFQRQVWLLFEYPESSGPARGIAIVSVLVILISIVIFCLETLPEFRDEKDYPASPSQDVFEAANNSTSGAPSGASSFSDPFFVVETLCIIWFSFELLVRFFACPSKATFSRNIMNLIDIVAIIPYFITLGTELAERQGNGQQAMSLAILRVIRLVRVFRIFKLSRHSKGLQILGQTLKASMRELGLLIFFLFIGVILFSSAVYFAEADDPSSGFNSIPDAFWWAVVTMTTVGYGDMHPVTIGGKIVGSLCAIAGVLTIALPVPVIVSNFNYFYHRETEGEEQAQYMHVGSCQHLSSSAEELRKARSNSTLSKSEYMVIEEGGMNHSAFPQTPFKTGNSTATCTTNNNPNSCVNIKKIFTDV
Method: To isolate the VSMCs (model of cells in contractile phenotype), the animals were sacrificed by decapitation after anesthesia with isoflurane (5% at 2.5 I O2 min^−1).
To obtain the VSMCs in culture (in vitro model of proliferative phenotype), small fragments (0.5 mm) of femoral arteries free of endothelium and connective tissue were placed in 35 mm Petri culture dishes covered with 2% gelatin (Type B, Sigma) in a DMEM culture medium with 20% of fetal bovine serum, 100 U/ml penicillin, 100 U/ml streptomycin and 2 mM L-glutamine at 37° C. in a 5% CO2 atmosphere. The migration and proliferation of the VSMCs of these explants was clear at 6-10 days, but the explants were maintained until the single layer of VSMC was confluent. At this time, by means of mechanical scraping with a rubber spatula the cells were shed and seeded in a new culture dish at ⅓ of their original density. The VSMCs were thus subjected to several passes (3-4) without showing apparent morphological changes.
The drugs were prepared at the final concentrations indicated in the saline solution of the bath following the supplier's instructions and were applied to the cells for a period of 1-2 minutes. The currents were recorded before applying the drug (control) and in the presence of the drug, and the percentage of reduction in the amplitude of the currents induced by different blockers was calculated.

[4] = system: VSMCs of the human uterine artery; assay: Proliferation of VSMCs in culture (BrdU incorporation); assay type: cell-based; details: 10 nM; 24 hours; medium with 5% serum
Method: FIG. 8. Effect of the Kv1.3 channel blockers on the proliferation of the VSMCs of the human uterine artery. […] Again, these experiments were conducted in cells in control medium and cells in which the margatoxin or PAP was added to the medium.
For the proliferation studies, the fraction of cells incorporating 5-bromo-2′-deoxyuridine (BrdU) was determined. BrdU is a thymidine analog which can be incorporated in its place for the synthesis phase of the cell cycle. The cells incorporating BrdU can be detected by means of observation under a fluorescence microscope upon using a monoclonal antibody against this molecule and a secondary antibody conjugated with a fluorochrome. The assay was performed with a commercial kit (5-Bromo-2′-deoxy-uridine labeling and Detection Kit I; Roche Applied Science, Germany). The human uterine artery smooth muscle cells were grown for 48 hours in glass coverslips 12 mm in diameter in DMEM medium supplemented with serum and antibiotics as has been previously described, until reaching a confluence close to 50%. […] To quantify the results, the number of cells positive for BrdU with respect to the total number of cells in the field (which is determined by labeling the nuclei with the DAPI fluorescent dye) is counted in 10-20 fields in each experiment.

[5] = system: Swine animal model of restenosis (coronary artery intima); assay: Swine animal model for the treatment of restenosis: morphometric analysis of stented coronary arteries; assay type: in vivo, pigs
Method: as §1, §2
A morphometric analysis is performed measuring the degree of endothelialization of the stent area, the content of VSMCs in the intima and its thickness in relation to the thickness of the vessel and the lumen area (see FIG. 9).

[6] = biological target: T1, Kv1.3 channel; assay: Whole-cell patch-clamp in HEK cell transfected with the Kv1.3 channel; assay type: cell-based; details: 10 nM; potentials from +10 up to +80 mV; HEK cell transfected with Kv1.3
From the text: FIG. 3. Example of the assay for determining if a substance is a Kv1.3 channel blocker. […] The amplitude of the maximum current evoked by each voltage pulse is depicted in panel B depending on the value of the membrane potential, with which the current (I) voltage (V) curve is constructed for the three situations.
To evaluate if a substance is capable of dose-dependently reducing the flow of current through Kv1.3 (i.e., if it is a Kv1.3 blocker). The currents through the Kv1.3 channels expressed in the heterologous system were studied by means of the patch-clamp technique in the whole-cell configuration. The currents were recorded at room temperature (21-25° C.). The cells, placed in a recording chamber located in an inverted microscope, were perfused with a physiological saline solution (in mM: 141 NaCl, 4.7 KCl, 1.2 MgCl2, 1.8 CaCl2, 10 glucose and 10 HEPES (pH 7.4 with NaOH). The recording pipettes were made from borosilicate glass (2.0 mm OD, WPI) with a pipette puller (Narishige PP-83) so that they have resistances between 2 and 5 MΩ upon filling them with an internal solution containing (in mM) 125 KCl, 4 MgCl2, 10 HEPES, 10 EGTA, 5 MgATP; (pH 7.2 with KOH). The whole-cell currents were recorded with an Axopatch 200 amplifier or the like, filtering at 2 kHz and sampling at 10 kHz. […]

T1 sequence (P22001 whole entry): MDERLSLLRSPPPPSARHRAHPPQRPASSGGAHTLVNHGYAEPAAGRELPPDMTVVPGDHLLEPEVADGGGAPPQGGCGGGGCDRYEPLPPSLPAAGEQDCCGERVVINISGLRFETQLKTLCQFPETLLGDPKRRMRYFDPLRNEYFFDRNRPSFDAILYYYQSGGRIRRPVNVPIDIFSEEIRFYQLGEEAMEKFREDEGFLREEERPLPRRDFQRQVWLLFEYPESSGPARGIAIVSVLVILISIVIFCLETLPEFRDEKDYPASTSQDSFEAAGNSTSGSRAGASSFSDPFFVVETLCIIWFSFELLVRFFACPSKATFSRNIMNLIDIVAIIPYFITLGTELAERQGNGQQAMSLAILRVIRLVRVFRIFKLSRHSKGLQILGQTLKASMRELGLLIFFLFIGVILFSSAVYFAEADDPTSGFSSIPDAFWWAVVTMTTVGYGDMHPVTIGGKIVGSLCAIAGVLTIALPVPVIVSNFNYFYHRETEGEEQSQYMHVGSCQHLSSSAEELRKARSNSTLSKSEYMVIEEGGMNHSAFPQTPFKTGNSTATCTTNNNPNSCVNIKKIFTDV

Compound	Kd ([1]; Kv1.3 channel)	further results
Parabuthus toxin 3	0.492 µM	–
[Hg+2] [Hg^2+]	10 µM	–
O=C(NCC1CCCCN1)c1cc(OCC(F)(F)F)ccc1OCC(F)(F)F (stereo not drawn) [Flecainide]	60 µM	–
CC[C@H](C)[C@@H]1NC(=O)[C@@H](NC(=O)[C@H](CO)NC(=O)[C@@H](N)CCCNC(=N)N)CSSC[C@@H](C(=O)O)NC(=O)[C@H]([C@@H](C)O)NC(=O)CNC(=O)[C@@H]2CSSC[C@@H]3NC(=O)[C@H](CCC(N)=O)NC(=O)[C@H](Cc4ccccc4)NC(=O)[C@H](C)NC(=O)[C@H]([C@@H](C)O)NC(=O)[C@H](CSSC[C@H](NC(=O)[C@H](Cc4ccccc4)NC(=O)[C@H](CO)NC(=O)[C@H](CC(C)C)NC(=O)[C@H](CCCNC(=N)N)NC(=O)[C@H](Cc4ccc(O)cc4)NC(=O)[C@H](CCCCN)NC(=O)[C@H](CCSC)NC(=O)[C@H](CO)NC(=O)[C@H](Cc4cnc[nH]4)NC(=O)[C@H](CCCCN)NC3=O)C(=O)N[C@@H](CCCNC(=N)N)C(=O)N[C@@H](CCCCN)C(=O)N[C@@H]([C@@H](C)O)C(=O)N2)NC(=O)[C@H](CCCNC(=N)N)NC(=O)[C@H](CO)NC(=O)[C@H](CCCCN)NC(=O)[C@@H]2CCCN2C(=O)[C@H]([C@@H](C)CC)NC(=O)[C@H]([C@@H](C)O)NC(=O)[C@H](CC(=O)O)NC1=O [ShK]	–	level at 96 h ([2]; pig, in vivo, 200 ug per stent, at 4 days, below the limit of detection): < 0.2 ng/mL
C=C(C)[C@]12C[C@@H](C)[C@@]34O[C@](Cc5ccccc5)(O[C@@H]1[C@@H]3C=C(COC(=O)Cc1ccc(O)c(OC)c1)C[C@]1(O)C(=O)C(C)=C[C@@H]41)O2 [Resiniferatoxin]	3 µM	–
Maurotoxin (VSCTGSKDCYAPCRKQTGCPNAKCINKSCKCYGC; UniProt P80719 1-34, looked up)	0.15 µM	–
Dendrotoxin	0.25 µM	–
Heterometrus spinifer toxin 1	1.2e-05 µM	–
COc1ccc(CCCN2CCC(COC(c3ccccc3)c3ccccc3)CC2)cc1 [UK78282]	0.2 µM	–
c1ccc(C2(N3CCCCC3)CCCCC2)cc1 [Phencyclidine]	5 µM	–
Stichodactyla helianthus toxin [Stichodactyla helianthus toxin (ShK)]	1.1e-05 µM	–
[Zn+2] [Zn^2+]	200 µM	–
Pandinus imperator toxin 3	0.0005 µM	–
Parabuthus toxin 1	0.8 µM	–
[Co+2] [Co^2+]	200 µM	–
Kaliotoxin	0.00065 µM	–
Hongotoxin	8.6e-05 µM	–
CN1CCN(CCCN2c3ccccc3Sc3ccc(C(F)(F)F)cc32)CC1 [Trifluoperazine]	20 µM	–
Agiotoxin-2	0.0002 µM	–
CC(=O)[C@H]1CC[C@H]2[C@@H]3CCC4=CC(=O)CC[C@]4(C)[C@H]3CC[C@]12C [Progesterone]	30 µM	–
[La+3] [La^3+]	20 µM	–
Margatoxin	0.00011 µM	current blocked, of the Kv current ([3]; VSMCs in culture): 58.15±4.54; current blocked, of the Kv current ([3]; contractile VSMCs): 10.6±2.03; fraction of cells labeled with BrdU (proliferation) [4]: a lower number of labeled nuclei is observed

Compound	Kd ([1]; Kv1.3 channel)	further results
Bunodosoma granulifera toxin	0.039 µM	–
κ-Hefutoxin	40 µM	–
COC(=O)C1=C(C)NC(C)=C(C(=O)OC)C1c1ccccc1[N+](=O)[O-] [Nifedipine]	5 µM	–
CCOC(=O)C1=C(C)NC(C)=C(C(=O)OC)C1c1cccc([N+](=O)[O-])c1 (stereo not drawn) [Nitrendipine]	5 µM	–
CCCCC/N=c1\ccn(Cc2ccccc2)c2ccccc12 [CP339818]	–	Kd [1]: 0.15 µM
Pandinus imperator toxin 2	5e-05 µM	–
Pandinus imperator toxin 1	0.011 µM	–
CCC[C@@H](O)/C=C/C=C/C=C/C#CC#CCCCO [Cicutotoxin]	18 µM	–
CC[N+](CC)(CC)CC [TEA, tetraethylammonium chloride]	10000 µM	–
Odonthobthus doriae toxin 2 [Odonthobthus doriae toxin 2 (OdK2)]	0.007 µM	–
O=c1cc(-c2ccc(O)c(O)c2)oc2cc(O)cc(O)c12 [Luteolin]	50 µM	–
COc1cc(CNC(=O)CCCC/C=C/C(C)C)ccc1O [Capsaicin]	26 µM	–
Titystoxin-Kα	0.004 µM	–
C=C[C@H]1C[N@@]2CC[C@H]1C[C@H]2[C@H](O)c1ccnc2ccc(OC)cc12 [Quinine]	14 µM	–
Charybdotoxin	0.003 µM	–
Noxiustoxin (TIINVKCTSPKQCSKPCKELYGSSAGAKCMNGKCKCYNN; UniProt P08815 1-39, looked up)	0.001 µM	–
COc1ccc([C@@H]2Sc3ccccc3N(CCN(C)C)C(=O)[C@@H]2OC(C)=O)cc1 [Diltiazem]	27 µM	–
Stichodactyla helianthus toxin—fluorescein-6-carboxylic acid [ShK-F6CA]	4.8e-05 µM	–
C=C1C[C@@]2(O)[C@@H]3CC[C@@]4(C)[C@@H]5C=CC(=O)OC[C@]5(C(C)OC(C)=O)[C@@H](OC(C)=O)[C@@H](OC(C)=O)[C@@H]4[C@@]3(C)[C@H](OC(C)=O)[C@H](OC(C)=O)[C@@]2(C)C2(C(=O)OC)O[C@H]12 (stereo partly drawn) [Correolide]	–	Kd [1]: 0.09 µM
O=c1ccc2c(OCCCCOc3ccccc3)c3ccoc3cc2o1 [PAP-1]	–	number of VSMCs in the intima ([5]; drug-coated stent versus control stent): significantly decreased; intimal area ([5]; drug-coated stent, 5.07 mm^2 in control): 2.23 mm^2; degree of stenosis ([5]; drug-coated stent, 45% in control): 27%; reduction of the current [6]: 80-85%; fraction of cells labeled with BrdU (proliferation) [4]: a lower number of labeled nuclei is observed; blood levels, maximal ([2]; 6 hours after implanting the stent, stent with 200 μg drug): about 3 ng/ml; content in the arterial tissue ([2]; at 7 days): 97 ng/artery; content in the arterial tissue ([2]; at 28 days): 30 ng/artery
trans-N-propyl-carbamoyloxy-PAC	0.05 µM	–
Buthus martensii Karsch toxin	0.00079 µM	–
